The source of these data is patent US20230014962A1, “Quinoline compound and use thereof” (SKYRUN PHARMA CO., LTD., priority 2019, published 2023).

Broadly, the pIC50 is −log10 of the IC50, conventionally taken in molar units.

pIC50: −log10 of the molar value.

The subject of one assay is Hep3B cell. The assay can be described thus: Determination of Hep3B cell inhibitory activity (Cell Titer-Glo, 72 h). The assay is classed as cell-based. To be noted: Hep3B cells, 72 h incubation, Cell Titer-Glo (CTG) method. An excerpt: 2. Determination of Hep3B Cell Inhibitory Activity of Target Compound
In general terms: Cellular ATP, detected with luciferase, serves as a proxy for viable cell number.

Another assay concerns the target T1, FGFR4 (Homo sapiens, UniProt P22455).
T1 construct: purchased
The assay can be described thus: Determination of FGFR4 inhibitory activity by fluorescence resonance energy transfer (FRET) method. To be noted: FGFR4 from purchased kit, read-out: In vitro FGFR4 kinase inhibitory activity IC50. The assay is classed as biochemical. An excerpt:
1. Determination of FGFR4 Inhibitory Activity of Target Compound
FGFR4 is obtained by direct purchase of a kit.

T1 sequence (P22455 22-802): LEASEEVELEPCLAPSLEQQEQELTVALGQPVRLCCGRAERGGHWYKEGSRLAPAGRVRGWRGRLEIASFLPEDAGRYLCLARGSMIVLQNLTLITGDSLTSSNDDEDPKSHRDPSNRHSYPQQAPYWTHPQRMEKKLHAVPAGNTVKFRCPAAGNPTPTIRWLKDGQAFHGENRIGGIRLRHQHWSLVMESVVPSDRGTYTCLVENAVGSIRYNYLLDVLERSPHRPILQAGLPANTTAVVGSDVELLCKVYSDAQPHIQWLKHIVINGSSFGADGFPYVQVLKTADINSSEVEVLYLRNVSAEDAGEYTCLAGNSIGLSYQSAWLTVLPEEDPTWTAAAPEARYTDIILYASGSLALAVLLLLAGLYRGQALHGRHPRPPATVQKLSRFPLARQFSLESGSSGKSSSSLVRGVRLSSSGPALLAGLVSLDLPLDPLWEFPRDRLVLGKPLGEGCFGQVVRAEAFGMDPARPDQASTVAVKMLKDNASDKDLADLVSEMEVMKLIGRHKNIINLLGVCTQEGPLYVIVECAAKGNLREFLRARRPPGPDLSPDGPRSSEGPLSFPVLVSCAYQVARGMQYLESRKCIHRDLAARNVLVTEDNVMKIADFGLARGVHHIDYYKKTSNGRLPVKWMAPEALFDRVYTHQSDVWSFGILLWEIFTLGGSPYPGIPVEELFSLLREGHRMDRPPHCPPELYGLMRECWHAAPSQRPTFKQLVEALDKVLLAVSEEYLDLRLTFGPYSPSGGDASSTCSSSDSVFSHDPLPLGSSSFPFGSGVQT

For `C=CC(=O)N1CC=C(c2cc3c(Oc4ccc(NC(=O)C5CCCC5)c(Cl)c4)ccnc3cc2OC)CC1` [Compound I-6], the values for the pIC50 with Hep3B cell (Homo sapiens) and at FGFR4 were above 7.00 and above 8.30, respectively.

For the compound `C=CC(=O)N1CC=C(c2cc3c(Oc4ccc(NC(=O)NC5CC5)cc4)ccnc3cc2OC)CC1` [Compound I-20, 4-[4-(cyclopropylaminocarbonyl)aminophenoxy]-6-[(1-acryloyl-1,2,3,6-tetrahydropyridine)-4-yl]-7-methoxyquinoline], the negative-log IC50 (pIC50) with Hep3B cell (Homo sapiens) was above 6.30; on FGFR4, above 8.30.

`C=CC(=O)N1CC=C(c2cc3c(Oc4ccc(NC(=O)NC5CC5)c(Cl)c4)ccnc3cc2OC2CCCC2)CC1` [Compound I-12]: the pIC50 with Hep3B cell (Homo sapiens) is above 7.00; at FGFR4, above 8.30.

Turning to `C=CC(=O)N1CC=C(c2cc3c(Oc4ccc(NC(=O)NC5CC5)c(Cl)c4)ccnc3cc2OC(C)C)CC1` [Compound I-11, 4-[3-chloro-4-(cyclopropylaminocarbonyl)aminophenoxy]-6-[(1-acryloyl-1,2,3,6-tetrahydropyridine)-4-yl]-7-isopropylquinoline], the negative logarithm of the IC50 (pIC50) in the assay with Hep3B cell (Homo sapiens) is above 7.30; at FGFR4, above 8.70.

For `C=CS(=O)(=O)N1CC=C(c2cc3c(Oc4ccc(NC(=O)NC5CC5)c(Cl)c4)ccnc3cc2OC)CC1` [Compound I-3, 4-[3-chloro-4-(cyclopropylaminocarbonyl)aminophenoxyl]-6-[(1-ethylenesulfonyl-1,2,3,6-tetrahydropyridine)-4-yl]-7-methoxyquinoline], the pIC50 in the assay on Hep3B cell (Homo sapiens) is above 7.00; at FGFR4, above 8.30.

As for `C=CC(=O)N1CC=C(c2cc3c(Oc4ccc(NC(=O)NC5CC5)c(Cl)c4)ccnc3cc2OCCN2CCOCC2)CC1` [Compound I-14], the pIC50 in the assay with Hep3B cell (Homo sapiens) is above 7.00; at FGFR4, above 8.30.

For “4-[3-chloro-4-(cyclopropylaminocarbonyl)aminophenoxy]-6-[(1-acryloyl-1,2,3,6-tetrahydropyridine)-4-yl]-7-ethylquinoline [Compound I-13]”, the pIC50 in the assay with Hep3B cell is above 7.30; on FGFR4, above 8.70.

As to `C=CC(=O)N1CC=C(c2cc3c(Oc4ccc(NC(=O)NC5CC5)c(Cl)c4)ccnc3cc2OC)C1` [Compound I-22, 4-[3-chloro-4-(cyclopropylaminocarbonyl)aminophenoxy]-6-[(1-acryloyl-2,5-dihydropyrrole)-3-yl]-7-methoxyquinoline], the pIC50 in the assay with Hep3B cell (Homo sapiens) was above 7.00; on FGFR4 it was above 8.30.

With “4-[3-chloro-4-(cyclopropylaminocarbonyl)aminophenoxy]-6-[(1-acryloyl-1,2,3,6-tetrahydropyridine)-4-yl]-7-methoxyquinoline [Compound I-1]”, the negative-log IC50 (pIC50) was above 7.30 in the assay on Hep3B cell and above 8.70 on FGFR4.

“4-[3-chloro-4-(cyclopentylaminocarbonyl)aminophenoxy]-6-[(1-acryloyl-1,2,3,6-tetrahydropyridine)-4-yl]1-7-methoxyquinoline [Compound I-9]”: the pIC50 in the assay with Hep3B cell is above 7.00; at FGFR4, above 8.30.

With “4-[2,6-dichloro-4-(cyclopropylaminocarbonyDaminobenzeneamino]-6-[(1-acryloyl-1,2,3,6-tetrahydropyridine)-4-yl]-7-methoxyquinoline [Compound I-27]”, the pIC50 in the assay on Hep3B cell is above 6.30; at FGFR4 it was above 8.30.

As for `C=CC(=O)N1CC=C(c2cc3c(Oc4ccc(C(=O)NC5CC5)c(Cl)c4)ccnc3cc2OC)CC1` [Compound I-24, 4-[3-chloro-4-(cyclopropylamino)carbonylphenoxy]-6-[(1-acryloyl-1,2,3,6-tetrahydropyridine)-4-yl]-7-methoxyquinoline], the pIC50 was above 7.30 with Hep3B cell (Homo sapiens) and above 8.70 on FGFR4.

As to “4-[3-chloro-4-(cyclopropylaminocarbonyl)aminophenoxy]-6-[(1-acryloyl-piperidine)-4-yl]-7-methoxyquinoline [Compound I-8]”, the pIC50 with Hep3B cell was above 7.30; at FGFR4, above 8.70.

Regarding `C=CC(=O)N1CCC=C(c2cc3c(Oc4ccc(NC(=O)NC5CC5)c(Cl)c4)ccnc3cc2OC)C1` [Compound I-21, 4-[3-chloro-4-(cyclopropylaminocarbonyl)aminophenoxy]-6-[(1-acryloyl-1,2,5,6-tetrahydropyridine)-3-yl]-7-methoxyquinoline], the negative-log IC50 (pIC50) is above 6.30 in the assay on Hep3B cell (Homo sapiens) and above 8.30 at FGFR4.

As for `C=CC(=O)N1CC=C(c2cc3c(Oc4ccc(NC(=O)NC(C)(C)C)c(Cl)c4)ccnc3cc2OC)CC1` [Compound I-16, 4-[3-chloro-4-(tert-butylaminocarbonyl)aminophenoxy]-6-[(1-acryloyl-1,2,3,6-tetrahydropyridine)-4-yl]-7-methoxyquinoline], the results for the pIC50 in the assay with Hep3B cell (Homo sapiens) and on FGFR4 were above 7.30 and above 8.30, respectively.

In the case of “4-[3-chloro-4-cyclohexanecarbonylaminophenoxy]-6-[(1-chloroyl-1,2,3,6-tetrahydropyridine)-4-yl]-7-methoxyquinoline [Compound I-7]”, the negative-log IC50 (pIC50) with Hep3B cell was above 7.30; at FGFR4 it was above 8.70.

Consider `C=CC(=O)Nc1cccc(C)c1Nc1ncc2cc(-c3c(Cl)c(OC)cc(OC)c3Cl)ccc2n1` [Blu9931, reference compound], for which the pIC50 in the assay with Hep3B cell (Homo sapiens) is 6.76.

In the case of “4-[3-chloro-4-cyclopropanecarboxylaminophenoxy]-6-[(1-chloroyl-1,2,3,6-tetrahydropyridine)-4 -yl]-7-methoxyquinoline [Compound I-5]”, the results for the negative-log IC50 (pIC50) in the assay with Hep3B cell and on FGFR4 were above 7.00 and above 8.30, respectively.

For the compound “4-[3-chloro-4-(cyclopropylaminocarbonyl)aminophenoxy]-6-[(1-diethylphosphorylacetyl-1,2,3,6-tetrahydropyridine)-4-yl]-7-methoxyquinoline [Compound I-2]”, the values for the pIC50 with Hep3B cell and at FGFR4 were above 7.00 and above 8.30, respectively.

For the compound `C=CC(=O)N1CC=C(c2cc3c(Sc4ccc(NC(=O)NC5CC5)c(Cl)c4)ccnc3cc2OC)CC1` [Compound I-25, 4-[3-chloro-4-(cyclopropylaminocarbonyl)aminophenylmercapto]-6-[(1-acryloyl-1,2,3,6-tetrahydropyridine)-4-yl]-7-methoxyquinoline], the pIC50 with Hep3B cell (Homo sapiens) was above 7.00; at FGFR4, above 8.30.

`C=CC(=O)N1CC=C(c2cc3c(Oc4ccc(NC(=O)NC5CCCCC5)c(Cl)c4)ccnc3cc2OC)CC1` [Compound I-15, 4-[3-chloro-4-(cyclohexylaminocarbonyl)aminophenoxy]-6-[(1-acryloyl-1,2,3,6-tetrahydropyridine)-4-yl]-7-methoxyquinoline] showed a negative-log IC50 (pIC50) in the assay on Hep3B cell (Homo sapiens) above 7.30.

With `C=CC(=O)N1CC=C(c2cc3c(Oc4ccc(NC(=O)NC5CC5)c(F)c4)ccnc3cc2OC)CC1` [Compound I-19, 4-[3-fluoro-4-(cyclopropylaminocarbonyl)aminophenoxy]-6-[(1-acryloyl-1,2,3,6-tetrahydropyridine)-4-yl]-7-methoxyquinoline], the pIC50 is above 7.30 in the assay on Hep3B cell (Homo sapiens) and above 8.70 on FGFR4.

In the case of `C=CC(=O)N1CC=C(c2cc3c(Oc4ccc(NC(=O)NC5CC5)c(Cl)c4)ccnc3cc2OCc2ccccc2)CC1` [Compound I-10], the pIC50 in the assay with Hep3B cell (Homo sapiens) is above 7.00; on FGFR4 it was above 8.30.

With `C=CC(=O)N1CCC(c2cc3c(Oc4ccc(NC(=O)NC5CC5)c(Cl)c4)ccnc3cc2OC)C1` (centres unmarked) [Compound I-23, 4-[3-chloro-4-(cyclopropylaminocarbonyl)aminophenoxy]-6-[(1-acryloyl-tetrahydropyrrole)-3-yl]-7-methoxyquinoline], the pIC50 in the assay on Hep3B cell (Homo sapiens) is above 6.30; on FGFR4 it was above 8.30.

With `C=CC(=O)N1CC=C(c2cc3c(Oc4ccc(NC(=O)NC5CC5)cc4F)ccnc3cc2OC)CC1` [Compound I-18, 4-[2-fluoro-4-(cyclopropylaminocarbonyl)aminophenoxy]-6[(1-acryloyl-1,2,3,6-tetrahydropyridine)-4-yl]-7-methoxyquinoline], the pIC50 in the assay with Hep3B cell was above 7.30; on FGFR4, above 8.30.

In the case of `C=CC(=O)N1CC=C(c2cc3c(Oc4ccc(NC(=O)Nc5ccccc5)c(Cl)c4)ccnc3cc2OC)CC1` [Compound I-17, 4-[3-chloro-4-(phenylaminocarbonyl)aminophenoxy]-6-[(1-acryloyl-1,2,3,6-tetrahydropyridine)-4-yl]-7-methoxyquinoline], the pIC50 in the assay with Hep3B cell (Homo sapiens) was above 7.30; at FGFR4, above 8.70.

In the case of “4-[3-chloro-4-(cyclopropylaminocarbonyl)aminophenoxy]-6-[(1-chloroyl-1,2,3,6-tetrahydropyridine)-4-yl]-7-methoxyquinoline [Compound I-4]”, the pIC50 with Hep3B cell was above 7.00; at FGFR4, above 8.30.

Regarding `C=CC(=O)N1CC=C(c2cc3c(Nc4ccc(NC(=O)NC5CC5)c(Cl)c4)ccnc3cc2OC)CC1` [Compound I-26, 4-[3-chloro-4-(cyclopropylaminocarbonyl)aminophenylamino]-6-[(1-acryloyl-1,2,3,6-tetrahydropyridine)-4-yl]-7-methoxyquinoline], the results for the pIC50 in the assay with Hep3B cell (Homo sapiens) and on FGFR4 were above 6.30 and above 8.30, respectively.

With `COc1cc2nccc(Oc3ccc(NC(=O)NC4CC4)c(Cl)c3)c2cc1C(N)=O` [Lenvatinib, reference compound], the negative logarithm of the IC50 (pIC50) in the assay with Hep3B cell (Homo sapiens) was above 6.30; on FGFR4, 7.37.
